Experimental data from patent US11364247B2, “Methods of treatment of partial onset seizures using eslicarbazepine acetate” (BIAL-PORTELA & CA S.A., priority 2005, dated 2022).

Experiments:
[1] = Entry-into-man studies in healthy subjects (Almeida I, Almeida II), plasma and urine pharmacokinetics; format: in vivo, human
From the text: Studies in humans have shown that, after oral administration, eslicarbazepine acetate appears to be rapidly and extensively metabolized to the active metabolite eslicarbazepine and, in a minor extent, to R-licarbazepine. See Silveira et al., “BIA 2-093 Pharmacokinetics in Healthy Elderly Subjects,” Epilepsia, 45 (suppl. 3), 157 (2004). […] See Almeida I; Almeida, L. & Soares-da-Silva, P., “Safety, Tolerability and Pharmacokinetic Profile of BIA 2-093, a Novel Putative Antiepileptic Agent, during First Administration to Humans,” Drugs R&D, 4, 269-284 (2003) (herein referred to as “Almeida II”).
The inventors performed entry-into-man studies in healthy subjects, the results of which they described in the Almeida I and Almeida II articles, both of which are hereby incorporated by reference. In these studies, the healthy subjects received a single oral dose of eslicarbazepine acetate wherein the dose ranged from 20 mg to 1200 mg (see Almeida II), and multiple daily-doses of eslicarbazepine acetate ranging from 200 mg twice-daily to 1200 mg once-daily (see Almeida I). Further studies (not yet published) by the inventors have investigated higher doses of eslicarbazepine acetate, including, for example, doses ranging up to 2400 mg once-daily.

[2] = Study in epileptic patients: trough plasma concentrations of BIA 2-005; format: in vivo, human
From the text: This clinical trial was a double-blind, randomized, placebo-controlled study performed by 20 centers in Croatia, Czech Republic, Germany, Lithuania and Poland. The stated objectives of the study were to assess the efficacy and safety of BIA 2-093 as adjunctive therapy in patients with refractory partial epilepsy. In total, 143 patients aged 18-65 years with at least 4 partial-onset seizures per month in spite of treatment with 1 or 2 antiepileptic drugs (AEDs) (e.g., phenytoin, valproate, primidone, phenobarbital, lamotrigine, gabapentin, topiramate or clonazepam) were randomly assigned to one of three groups: treatment with placebo (n=47), BIA 2-093 once-daily (n=50), or BIA 2-093 twice-daily (n=46), during 12 weeks (plus 1 week of tapering off). For the first 4 weeks, daily dose was 400 mg. Then, daily doses were increased to 800 mg (weeks 5-8), and finally to 1200 mg (weeks 9-12). Tablets with strengths of 200 mg, 400 mg, and 600 mg eslicarbazepine acetate and placebo tablets were manufactured by BIAL (S. Mamede do Coronado, Portugal) in accordance with Good Manufacturing Practice. The assay plasma to determine the concentration of BIA 2-005 was performed with a non-chiral method using isocratic liquid chromatography (LC) with single quadrupole mass spectrometric detection (MS), as described herein. See, e.g., Almeida I and Almeida II.
Plasma/serum samples for the “trough” (pre-dose) levels of BIA 2-005 and concomitant AEDs were collected at all visits but V5 (post-study visit). The objective was to characterize the influence of eslicarbazepine acetate on the pharmacokinetic behavior of the concomitant AEDs (e.g., phenytoin, valproate, primidone, phenobarbital, lamotrigine, gabapentin, topiramate, and clonazepam).

[3] = Trial A: steady-state pharmacokinetics of once-daily and twice-daily regimens in healthy volunteers; format: in vivo, human; conditions: arithmetic mean; for AUC0-t / AUC0-∞ / Cmax / t1/2 / tmax: after last dose (8 days)
Procedure: This human pharmacology trial was a study to investigate the steady-state pharmacokinetics of once-daily and twice-daily regimens of eslicarbazepine acetate in healthy subjects. The study was a single center, open-label, randomized, two-way crossover study in 12 healthy volunteers (6 males and 6 females) that consisted of two 8-day treatment periods separated by a washout period of 10-15 days. […] Tablets with a strength of 450 mg of eslicarbazepine acetate, manufactured by BIAL (S. Mamede do Coronado, Portugal) in accordance with Good Manufacturing Practice, were used.
Blood samples for drug plasma assays were taken at the following times: […]
Blood samples were drawn either by direct venipuncture or via an intravenous catheter into lithium heparin tubes and centrifuged at approximately 1500 g for 10 minutes at 4° C. The resulting plasma was separated into 2 equal aliquots of 1 mL and stored at −20° C. until required for analysis.
Plasma concentrations of eslicarbazepine acetate, eslicarbazepine, and R-licarbazepine were determined using isocratic liquid chromatography (LC) with single quadrupole mass spectrometric detection (MS).
The method involved the addition of 500 μL of approximately 0.5 μg/mL of 10,11-dihydrocarbamazepine (internal standard prepared in acetonitrile:water, 3:97, v:v) to 250 μL of plasma (centrifuged at 1800 rpm, prior to analysis) in a polypropylene tube. After vortex mixing for 10 seconds, the mixture was transferred to a Schleicher and Schuell C18/100 mg 96 well solid phase extraction plate. Each well was preconditioned with 800 μL methanol, followed by 800 μL acetonitrile and 800 μL acetonitrile:water (3:97, v:v) prior to application of the total sample volume. Each polypropylene tube was then washed with 500 μL acetonitrile:water (3:97, v:v) and the washings transferred to the respective well. The compounds were eluted into a collection plate with 750 μL acetonitrile and the extract evaporated to dryness under oxygen-free nitrogen, at 40° C. All solid phase extraction manipulations were undertaken using the Tomtec QUADRA 96® Model 320 system and a vacuum was applied at each elution step. The final extract was reconstituted in 100 μL of water:methanol (90:10, v:v) and mixed. The collection plate was then centrifuged at approximately 3000 rpm (at approximately 4° C., for approximately 10 minutes) prior to analysis. An aliquot of the final extract (10 μL) was injected onto the LC-MS system.
The LC-MS system used in the analysis consisted of a Perkin Elmer series 200 micro pump, a Perkin Elmer series 200 autosampler, and a Perkin Elmer/Sciex API 150EX single quadrupole mass spectrometer fitted with a Turbo IonSpray® source. Separation was achieved using a LichroCART 250-4 ChiraDex column (β-cyclodextrin, 5 μm), a LichroCART 4-4 ChiraDex column guard column (β-cyclodextrin, 5 μm), a Jones Chromatography 7971 column heater at 50° C., a mobile phase A (0.2 mM sodium acetate, aq) and a mobile phase B (0.2 mM sodium acetate, MeOH). The MS detector was operated in positive ion mode with mass transitions for BIA 2-093, eslicarbazepine, R-licarbazepine, and the internal standard of 319.16 amu (200 ms), 277.08 amu (200 ms), 277.08 amu (200 ms) and 261.05 amu (200 ms), respectively. The limit of quantification of the assay was 10 ng/mL for eslicarbazepine acetate and 100 ng/mL for eslicarbazepine and R-licarbazepine.
Eslicarbazepine acetate, (S)-(−)-10-acetoxy-10,11-dihydro-5H-dibenz/b,f/azepine-5-carboxamide; eslicarbazepine, (S)-(+)-10,11-dihydro-10-hydroxy-5H dibenz/b,f/azepine-5-carboxamide; and R-licarbazepine, (R)-(−)-10,11-dihydro-10-hydroxy-5H dibenz/b,f/azepine-5-carboxamide, were synthesized in the Laboratory of Chemistry, BIAL, with purities>99.5%. The internal standard, 10,11-dihydrocarbamazepine was supplied by Sigma-Aldrich (St. Louis, Mo.).
The pharmacokinetic parameters were derived from non-compartmental analysis using WinNonlin (Version 4.0, Pharsight Corporation, Mountain View, Calif.). […]

[4] = Metabolic profile in liver microsomes, chiral analysis; format: in vitro ADME; conditions: liver microsomes from rats, dogs, monkeys and humans, not the R(−) form
[5] = test system: refractory partial epilepsy (partial-onset seizures); experiment: Study in epileptic patients: efficacy as adjunctive therapy; format: in vivo, human; conditions: once-daily group compared with the other groups
Procedure: This clinical trial was a double-blind, randomized, placebo-controlled study performed by 20 centers in Croatia, Czech Republic, Germany, Lithuania and Poland. The stated objectives of the study were to assess the efficacy and safety of BIA 2-093 as adjunctive therapy in patients with refractory partial epilepsy. […] For the first 4 weeks, daily dose was 400 mg. Then, daily doses were increased to 800 mg (weeks 5-8), and finally to 1200 mg (weeks 9-12). Tablets with strengths of 200 mg, 400 mg, and 600 mg eslicarbazepine acetate and placebo tablets were manufactured by […] do Coronado, Portugal) in accordance with Good Manufacturing Practice. […] See, […] and Almeida II. The proportion of patients with a 50% or greater reduction in seizure frequency in the treatment period compared to the baseline period in the intention-to-treat (ITT) population (n=143) was the primary efficacy endpoint. […] The proportion of responders in the once-daily group (54%) was also higher than in the twice-daily (41%) group. […] At this dose level, no significant difference was found between the twice-daily and the placebo groups. Secondary endpoints include the reduction in total seizure frequency, proportion of seizure-free patients, distribution of responders, comparison of once and twice daily regimens, and investigator's and patient's global evaluation.

[6] = test system: voltage-gated sodium channel (VGSC); conditions: compared with carbamazepine; cited from earlier work
[7] = Trial B: pharmacokinetics following single doses in healthy young male subjects; format: in vivo, human
Procedure: (§1) This human pharmacology trial was a study to determine the pharmacokinetics of eslicarbazepine acetate following single and repeated doses. The study integrated the results of three double-blind, randomized, placebo-controlled trials. To measure the pharmacokinetics of eslicarbazepine acetate following single doses, oral single doses of eslicarbazepine acetate ranging from 20 mg to 2400 mg were administered to healthy young male subjects (6 subjects per dose). The pharmacokinetics of eslicarbazepine acetate following repeated doses were measured by administering repeated oral doses ranging from 400 mg to 2400 mg of eslicarbazepine acetate to healthy young male subjects (6 subjects per dose) over a period of 8 days. Analytical test methods and experimental procedures were similar to those described for Trial A above.

[8] = Trial B: pharmacokinetics following repeated once-daily doses over 8 days in healthy young male subjects; format: in vivo, human; conditions: for tmax: male, human, plasma, oral, read-out: Median tmax
Procedure: as §1

[9] = multiple oral dose of 900 mg eslicarbazepine acetate once-daily
[10] = multiple oral dose of 900 mg eslicarbazepine acetate twice-daily
[11] = single oral dose of 1200 mg eslicarbazepine acetate

NC(=O)N1c2ccccc2CC(O)c2ccccc21 (stereo not drawn) [BIA 2-005]
mean renal clearance from plasma ([1]; BIA 2-005, healthy subjects): 20 to 30 mL/min
extent of systemic exposure ([1]; BIA 2-005 after oral eslicarbazepine acetate, healthy subjects): approximately dose-proportional
trough plasma concentration, mean (sd) ([2]; 400 mg/day eslicarbazepine acetate, b.i.d. group): 4.9 (2.3) μg/mL
trough plasma concentration, mean (sd) ([2]; 400 mg/day eslicarbazepine acetate, o.d. group): 4.0 (3.2) μg/mL
trough plasma concentration, mean (sd) ([2]; 800 mg/day eslicarbazepine acetate, b.i.d. group): 13.5 (9.6) μg/mL
trough plasma concentration, mean (sd) ([2]; 800 mg/day eslicarbazepine acetate, o.d. group): 10.7 (7.0) μg/mL
trough plasma concentration, mean (sd) ([2]; 1200 mg/day eslicarbazepine acetate, b.i.d. group): 15.5 (8.8) μg/mL
trough plasma concentration, mean (sd) ([2]; 1200 mg/day eslicarbazepine acetate, o.d. group): 14.6 (8.8) μg/mL

NC(=O)N1c2ccccc2C[C@@H](O)c2ccccc21 [R-licarbazepine, (R)-(−)-10,11-dihydro-10-hydroxy-5H dibenz/b,f/azepine-5-carboxamide]
AUC0-t [3, 9]: 19,600 ng · h/mL
AUC0-∞ [3, 9]: 23989 ng·h/mL
Cmax [3, 9]: 674 ng/mL
t1/2 [3, 9]: 15.0 h
tmax [3, 9]: 9.42 h
AUC0-τ ([3]; multiple oral dose of 900 mg eslicarbazepine acetate once-daily, dosing interval 24 hours): 13397 ng·h/mL
AUC0-t [3, 10]: 19,661 ng · h/mL
AUC0-∞ [3, 10]: 23807 ng·h/mL
Cmax [3, 10]: 718 ng/mL
t1/2 [3, 10]: 14.8 h
tmax [3, 10]: 6.40 h
AUC0-τ ([3]; multiple oral dose of 900 mg eslicarbazepine acetate twice-daily, dosing interval 12 hours): 7783 ng·h/mL

CC(=O)O[C@H]1Cc2ccccc2N(C(N)=O)c2ccccc21 [eslicarbazepine acetate, (S)-(−)-10-acetoxy-10,11-dihydro-5H-dibenz/b,f/azepine-5-carboxamide]
metabolite formed [4]: S(+) enantiomer of licarbazepine
assessment of efficacy by the investigator (CGI) and of acceptability by patient [5]: rated best
affinity for the resting state of the sodium channel, lower than that of carbamazepine [6]: about 3 fold

NC(=O)N1c2ccccc2C[C@H](O)c2ccccc21 [eslicarbazepine, (S)-(+)-10,11-dihydro-10-hydroxy-5H dibenz/b,f/azepine-5-carboxamide]
AUC0-t ([7]; male, human, plasma, single oral dose of 2400 mg eslicarbazepine acetate, read-out: Mean AUC0-24 h): 446000 ng·h/mL
Mean apparent t1/2 ([7]; single oral dose of 20 mg eslicarbazepine acetate): 9.1 h
Median tmax ([7]; single oral dose of 400 mg eslicarbazepine acetate): 4 h
Median tmax ([7]; single oral dose of 600 mg eslicarbazepine acetate): 4 h
Mean AUC0-24 h [7, 11]: 285,700 ng · h/mL
Median tmax [7, 11]: 4 h
Mean apparent t1/2 ([7]; single oral dose of 2400 mg eslicarbazepine acetate): 11.1 h
Mean Cmax ([8]; last dose of 8-day repeated 800 mg o.d. eslicarbazepine acetate): 18,700 ng/mL
tmax ([8]; last dose of 8-day repeated 1800 mg o.d. eslicarbazepine acetate): 2 h
tmax ([8]; last dose of 8-day repeated 2400 mg o.d. eslicarbazepine acetate): 2 h
